# Assay results from patent US6156762A, “Indolomorphinan derivative and agent for curing and preventing cerebral disorder” (Toray Industries, Inc., priority 1997, dated 2000).
# Tested on: middle cerebral artery ischemia model of rat
# Experiment: Infarction inhibiting action in middle cerebral artery ischemia (MCAo-recirculation) model of rat
# Assay type: in vivo
# Conditions: ip, 24 h, 3 mg/kg i.p. 10 minutes before occlusion and 1 hour after recirculation, infarction volume one day after, vs control group, read-out: Rate of inhibition of infarction
# Description: It is also known that, in this way, in the acute stage of cerebral infarction, the lesion proceeds to the peripheral tissue from the core of infarction, and death of the nerve cells is extended with the passage of several days. This possible not only extends and creates grave aftereffects, and causes loss of motor and mental function, but also finally critically influences on the life. As an in vivo experimental model of cerebral infarction which is capable of precisely evaluating the clinical effect of a medicine in conformity with clinical conditions of the disease of a patient of cerebral infarction, the middle cerebral artery occlusion (MCAo)-recirculation model comprising an embolus with a yarn using Wister rates may be used [Document: Japan Journal of Stroke, vol. 8, 1 (1986)]. […] This action was evaluated by applying the MCAo model by the method which will be described below.
# In rats of 10 weeks old, after etherization, a median incision of the cervical region was made up to the right carotid artery bifurcation under 1.0% halothane anesthetization with care to preserve the vagus nerves. The common carotid artery and the external carotid artery were separated from the periphery connective tissue with the right carotid artery bifurcation as the center, and each of the arteries was ligated by a 6-0 silk yarn (Eto yarn). Further, a yarn was wound on the internal carotid artery origin in preparation for ligation and fixing after insertion of the embolus. Next, the common carotid artery was incised, and the embolus was inserted from the common carotid artery to the internal carotid artery by about 15 to 16 mm, and ligated and fixed to the internal carotid artery by the silk yarn at the end thereof near the nylon yarn. In this operation, the end of the embolus was inserted into the anterior cerebral artery by about 1 to 2 mm beyond the middle cerebral artery bifurcation, and the inlet of the middle cerebral artery was occluded by the body (resin part) of the embolus for 1 hours. In recirculation, the embolus with a yarn was removed to recirculate the blood flow to the middle cerebral artery. 3 mg/kg of each of test compounds was intraperitoneally administered 10 minutes before occlusion and 1 hour after recirculation of the blood flow. One day after occlusion and recirculation, the whole body was perfused with physiologic saline through the heart, and the brain was extracted. The extracted brain was cooled with ice and water for 5 minutes, and cut at intervals of 2.0 mm to form 7 sections of the cerebral coronal surface. Each of the sections was stained with TTC (Triphenyltetrazolium Chloride), and fixed by a 5% neutral buffer formalin solution. In each of the sections, the infarction area in the right cerebral hemisphere was measured by an image analyzer (Olympus), and the infarction was evaluated by volume (mm^3). The infarction volume was compared with the infarction volume of a control group to calculate the rate of inhibition of infarction.
row,Compound,inhibition in vivo at 3 mg/kg [%]
1,"O=C(CCCCCc1ccccc1)NCCCn1c2c(c3ccccc31)C[C@@]1(O)[C@H]3Cc4ccc(O)c5c4[C@@]1(CCN3CC1CC1)[C@H]2O5 [Compound 62, 17-cyclopropylmethyl-3,14β-dihydroxy-6,7-dehydro-4,5α-epoxy-6,7,2',3'-[1'-[3-(6-phenylhexanoamido)propyl]indolo]morphinan]",10
2,"Oc1ccc2c3c1O[C@H]1c4[nH]c5c(ccc6ccccc65)c4C[C@@]4(O)[C@@H](C2)NCC[C@]314 [Compound 73, 3, 14β-dihydroxy-6,7-dehydro-4,5α-epoxy-6,7,2',3'-(6',7'-benzoindolo)morphinan]",34
3,"CN1CC[C@]23c4c5ccc(O)c4O[C@H]2c2[nH]c4c(ccc6ccccc64)c2C[C@@]3(O)[C@H]1C5 [Compound 74, 17-methyl-3,14β-dihydroxy-6,7-dehydro-4,5α-epoxy-6,7,2',3'-(6',7'-benzoindolo)morphinan]",27
4,"Oc1ccc2c3c1O[C@H]1c4[nH]c5c(ccc6ccccc65)c4C[C@@]4(O)[C@@H](C2)N(CCc2ccccc2)CC[C@]314 [Compound 75, 17-(2-phenylethyl)-3,14β-dihydroxy-6,7-dehydro-4,5α-epoxy-6,7,2',3'-(6',7'-benzoindolo)morphinan]",30
5,"Oc1ccc2c3c1O[C@H]1c4[nH]c5c(ccc6ccccc65)c4C[C@@]4(O)[C@@H](C2)N(CC2CCC2)CC[C@]314 [Compound 76, 17-cyclobutylmethyl-3,14β-dihydroxy-6,7-dehydro-4,5α-epoxy-6,7,2',3'-(6',7'-benzoindolo)morphinan]",65
6,"CS(=O)(=O)n1c2c(c3ccc4ccccc4c31)C[C@@]1(O)[C@H]3Cc4ccc(O)c5c4[C@@]1(CCN3CC1CC1)[C@H]2O5 [Compound 78, 17-cyclopropylmethyl-3,14β-dihydroxy-6,7-dehydro-4,5α-epoxy-6,7,2',3'-(1'-methylsulfonyl 6',7'-benzoindolo)morphinan]",55
